Consider 23 compounds from patent US12570642B2, “GLP-IR modulating compounds” (Gilead Sciences, Inc., priority 2021, dated 2026).

Chain of GLP-1R (P43220 24-463): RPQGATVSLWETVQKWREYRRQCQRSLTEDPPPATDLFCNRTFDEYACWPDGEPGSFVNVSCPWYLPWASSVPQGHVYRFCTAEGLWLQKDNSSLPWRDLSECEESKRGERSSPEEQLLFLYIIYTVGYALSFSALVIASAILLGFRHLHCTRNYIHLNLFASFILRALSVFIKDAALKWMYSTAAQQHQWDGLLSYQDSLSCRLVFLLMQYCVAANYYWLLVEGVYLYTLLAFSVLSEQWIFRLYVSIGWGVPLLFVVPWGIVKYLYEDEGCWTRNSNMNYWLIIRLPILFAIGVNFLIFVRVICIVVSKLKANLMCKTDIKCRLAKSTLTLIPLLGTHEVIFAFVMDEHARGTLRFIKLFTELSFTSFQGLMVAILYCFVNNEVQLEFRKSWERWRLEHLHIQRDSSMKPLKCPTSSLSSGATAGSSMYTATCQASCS

For the assay, the target named is GLP-1R (Homo sapiens, UniProt P43220). The assay can be described thus: GLP-1R Activation - cAMP Assay. In kind it is cell-based. The conditions noted are these: cAMP increase in CHO cells stably expressing GLP-1R; each compound run on one of the two cAMP assays (Assay 1 or Assay 2, not specified). The essentials:
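CHO cells stably expressing GLP-1R, plated at 1,000 cells/well overnight, then equilibrated 1 h in HBSS with 20 mM Hepes and 0.1% BSA. Agonist added as 10-point dose response for 30 min at 37 °C. cAMP measured by HTRF (Cisbio Gs Dynamic kit); EC50 from sigmoidal fit.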
For orientation: Changes in cAMP serve as a functional read-out for many G protein-coupled receptors.
For orientation: EC50 means the concentration needed to bring the measured effect to its halfway point. Lower therefore signals a more potent agent. `CC(F)(F)c1ccc(COc2cccc(-c3cc(F)c(Cc4nc5ccc(C(=O)O)cc5n4[C@@H]4COCC4(C)C)cc3F)n2)nc1` [Example 195, (S)-2-(4-(6-((5-(1,1-difluoroethyl)pyridin-2-yl)methoxy)pyridin-2-yl)-2,5-difluorobenzyl)-1-(4,4-dimethyltetrahydrofuran-3-yl)-1H-benzo[d]imidazole-6-carboxylic acid]: the concentration for a half-maximal effect (EC50) worked out at 539 pM.
The value for `CC1(C)COC[C@H]1n1c(Cc2c(F)cc(-c3ccnc(OCc4ccc(Cl)cc4F)n3)c(F)c2F)nc2c(F)cc(C(=O)O)cc21` [Example 196, (S)-2-(4-(2-((4-chloro-2-fluorobenzyl)oxy)pyrimidin-4-yl)-2,3,6-trifluorobenzyl)-1-(4,4-dimethyltetrahydrofuran-3-yl)-4-fluoro-1H-benzo[d]imidazole-6-carboxylic acid] was 508 pM.
In the case of `CC[C@@H]1OCC[C@H]1n1c(Cc2cc(F)c(-c3cccc(OCc4ccc(C#N)cc4F)n3)cc2F)nc2ccc(C(=O)O)cc21` [Example 197, 2-(4-(6-((4-cyano-2-fluorobenzyl)oxy)pyridin-2-yl)-2,5-difluorobenzyl)-1-((2S,3R)-2-ethyltetrahydrofuran-3-yl)-1H-benzo[d]imidazole-6-carboxylic acid], the 50% effective concentration (EC50) came to 6620 pM.
To `CC1(C)COC[C@H]1n1c(Cc2cc(F)c(-c3ccnc(OCc4ccc(C#N)cc4F)n3)cc2F)nc2ccc(C(=O)O)cc21` [Example 198, (S)-2-(4-(2-((4-cyano-2-fluorobenzyl)oxy)pyrimidin-4-yl)-2,5-difluorobenzyl)-1-(4,4-dimethyltetrahydrofuran-3-yl)-1H-benzo[d]imidazole-6-carboxylic acid] belongs 508 pM; to `CC1(C)CC(n2c(Cc3cc(F)c(-c4cccc(OCc5ccc(C#N)cc5F)n4)cc3F)nc3ccc(C(=O)O)cc32)C(C)(C)O1` (centres unmarked) [Example 199, 2-(4-(6-((4-cyano-2-fluorobenzyl)oxy)pyridin-2-yl)-2,5-difluorobenzyl)-1-(2,2,5,5-tetramethyltetrahydrofuran-3-yl)-1H-benzo[d]imidazole-6-carboxylic acid], 90900 pM.
`CC1(C)COCC1n1c(Cc2cc(F)c(-c3ccnc(OCc4ccc(C(F)(F)F)cc4F)n3)cc2F)nc2c(F)cc(C(=O)O)cc21` (centres unmarked) [Example 200, 2-(2,5-difluoro-4-(2-((2-fluoro-4-(trifluoromethyl)benzyl)oxy)pyrimidin-4-yl)benzyl)-1-(4,4-dimethyltetrahydrofuran-3-yl)-4-fluoro-1H-benzo[d]imidazole-6-carboxylic acid] showed an EC50 of 508 pM.
The value for `CC1(C)COC[C@H]1n1c(Cc2cc(F)c(-c3cccc(OCc4ccc(Cl)cc4F)n3)cc2F)nc2c(F)cc(C(=O)O)cc21` [Example 201, (S)-2-(4-(6-((4-chloro-2-fluorobenzyl)oxy)pyridin-2-yl)-2,5-difluorobenzyl)-1-(4,4-dimethyltetrahydrofuran-3-yl)-4-fluoro-1H-benzo[d]imidazole-6-carboxylic acid] was 28 pM.
For `N#Cc1ccc(COc2cccc(-c3cc(F)c(Cc4nc5ccc(C(=O)O)cc5n4C4COC5(COC5)C4)cc3F)n2)c(F)c1` (centres unmarked) [Example 202, 2-(4-(6-((4-cyano-2-fluorobenzyl)oxy)pyridin-2-yl)-2,5-difluorobenzyl)-1-(2,5-dioxaspiro[3.4]octan-7-yl)-1H-benzo[d]imidazole-6-carboxylic acid], the midpoint of the response, the EC50, lay at 4010 pM.
To `N#Cc1ccc(COc2cccc(-c3cc(F)c(Cc4nc5ccc(C(=O)O)cc5n4C4COC5(CC5)C4)cc3F)n2)c(F)c1` (centres unmarked) [Example 203, 2-(4-(6-((4-cyano-2-fluorobenzyl)oxy)pyridin-2-yl)-2,5-difluorobenzyl)-1-(4-oxaspiro[2.4]heptan-6-yl)-1H-benzo[d]imidazole-6-carboxylic acid] belongs 38300 pM; to `CC1(C)COC[C@H]1n1c(Cc2cc(F)c(-c3cccc(OCc4cc(F)c(C#N)cc4F)n3)cc2F)nc2c(F)cc(C(=O)O)cc21` [Example 204, (S)-2-(4-(6-((4-cyano-2,5-difluorobenzyl)oxy)pyridin-2-yl)-2,5-difluorobenzyl)-1-(4,4-dimethyltetrahydrofuran-3-yl)-4-fluoro-1H-benzo[d]imidazole-6-carboxylic acid], 90 pM.
To `CC1(C)COC[C@H]1n1c(Cc2cc(F)c(-c3ccnc(OCc4ccc(C#N)cc4F)n3)cc2F)nc2c(F)cc(C(=O)O)cc21` [Example 205, (S)-2-(4-(2-((4-cyano-2-fluorobenzyl)oxy)pyrimidin-4-yl)-2,5-difluorobenzyl)-1-(4,4-dimethyltetrahydrofuran-3-yl)-4-fluoro-1H-benzo[d]imidazole-6-carboxylic acid] belongs 97 pM; to `CC1(C)COC[C@H]1n1c(Cc2cc(F)c(-c3nccc(OCc4ccc(C#N)cc4F)n3)cc2F)nc2c(F)cc(C(=O)O)cc21` [Example 206, (S)-2-(4-(4-((4-cyano-2-fluorobenzyl)oxy)pyrimidin-2-yl)-2,5-difluorobenzyl)-1-(4,4-dimethyltetrahydrofuran-3-yl)-4-fluoro-1H-benzo[d]imidazole-6-carboxylic acid], 191 pM.
The value for `Cc1cc(Cc2nc3c(F)cc(C(=O)O)cc3n2[C@@H]2COCC2(C)C)c(F)cc1-c1ccc(F)c(OCc2ccc(C#N)cc2F)n1` [Example 207, (S)-2-(4-(6-((4-cyano-2-fluorobenzyl)oxy)-5-fluoropyridin-2-yl)-2-fluoro-5-methylbenzyl)-1-(4,4-dimethyltetrahydrofuran-3-yl)-4-fluoro-1H-benzo[d]imidazole-6-carboxylic acid] was 168 pM; that for `Cc1cc(Cc2nc3c(F)cc(C(=O)O)cc3n2[C@@H]2COCC2(C)C)c(F)cc1-c1cccc(OCc2ccc(C#N)cc2F)n1` [Example 208, (S)-2-(4-(6-((4-cyano-2-fluorobenzyl)oxy)pyridin-2-yl)-2-fluoro-5-methylbenzyl)-1-(4,4-dimethyltetrahydrofuran-3-yl)-4-fluoro-1H-benzo[d]imidazole-6-carboxylic acid] was 249 pM.
Take `N#Cc1ccc(COc2cccc(-c3ccc(Cc4nc5ccc(C(=O)O)cc5n4[C@@H]4CCOC4)c(F)c3)n2)c(F)c1` [Example 209, (R)-2-(4-(6-((4-cyano-2-fluorobenzyl)oxy)pyridin-2-yl)-2-fluorobenzyl)-1-(tetrahydrofuran-3-yl)-1H-benzo[d]imidazole-6-carboxylic acid]: a half-maximal response (EC50) required 12300 pM.
`N#Cc1ccc(COc2cccc(-c3ccc(Cc4nc5ccc(C(=O)O)cc5n4[C@H]4CCOC4)c(F)c3)n2)c(F)c1` [Example 210, (S)-2-(4-(6-((4-cyano-2-fluorobenzyl)oxy)pyridin-2-yl)-2-fluorobenzyl)-1-(tetrahydrofuran-3-yl)-1H-benzo[d]imidazole-6-carboxylic acid] showed a concentration for a half-maximal effect (EC50) of 14100 pM.
To `Cc1cc(Cc2nc3c(F)cc(C(=O)O)cc3n2[C@@H]2COCC2(C)C)c(F)cc1-c1ccnc(OCc2ccc(Cl)cc2)n1` [Example 211, (S)-2-(4-(2-((4-chlorobenzyl)oxy)pyrimidin-4-yl)-2-fluoro-5-methylbenzyl)-1-(4,4-dimethyltetrahydrofuran-3-yl)-4-fluoro-1H-benzo[d]imidazole-6-carboxylic acid] belongs 258 pM.
The value for `Cc1cc(Cc2nc3c(F)cc(C(=O)O)cc3n2[C@@H]2COCC2(C)C)c(Cl)cc1-c1ccnc(OCc2ccc(Cl)cc2)n1` [Example 212, (S)-2-(2-chloro-4-(2-((4-chlorobenzyl)oxy)pyrimidin-4-yl)-5-methylbenzyl)-1-(4,4-dimethyltetrahydrofuran-3-yl)-4-fluoro-1H-benzo[d]imidazole-6-carboxylic acid] was 379 pM; that for `COCCn1c(Cc2c(F)cc(-c3ccc(F)c(OCc4cnc(-n5ccnn5)cc4Cl)n3)c(F)c2F)nc2c(F)cc(C(=O)O)cc21` [Example 213, 2-(4-(6-((4-chloro-6-(1H-1,2,3-triazol-1-yl)pyridin-3-yl)methoxy)-5-fluoropyridin-2-yl)-2,3,6-trifluorobenzyl)-4-fluoro-1-(2-methoxyethyl)-1H-benzo[d]imidazole-6-carboxylic acid] was 42 pM.
`COCCn1c(Cc2cc(F)c(-c3cccc(OCc4cnc(-n5ccnn5)cc4Cl)n3)cc2F)nc2ccc(C(=O)O)cc21` [Example 214, 2-(4-(6-((4-chloro-6-(1H-1,2,3-triazol-1-yl)pyridin-3-yl)methoxy)pyridin-2-yl)-2,5-difluorobenzyl)-1-(2-methoxyethyl)-1H-benzo[d]imidazole-6-carboxylic acid] came in with an EC50 of 299 pM.
The value for `COCCn1c(Cc2cc(F)c(-c3ccc(F)c(OCc4cnc(-n5ccnn5)cc4Cl)n3)cc2F)nc2ccc(C(=O)O)cc21` [Example 215, 2-(4-(6-((4-chloro-6-(1H-1,2,3-triazol-1-yl)pyridin-3-yl)methoxy)-5-fluoropyridin-2-yl)-2,5-difluorobenzyl)-1-(2-methoxyethyl)-1H-benzo[d]imidazole-6-carboxylic acid] was 210 pM; that for `Cc1cc(Cc2nc3ccc(C(=O)O)cc3n2[C@@H]2COCC2(C)C)c(Cl)cc1-c1ccnc(OCc2ccc(Cl)cc2)n1` [Example 218, (S)-2-(2-chloro-4-(2-((4-chlorobenzyl)oxy)pyrimidin-4-yl)-5-methylbenzyl)-1-(4,4-dimethyltetrahydrofuran-3-yl)-1H-benzo[d]imidazole-6-carboxylic acid] was 279 pM.
The value for `Cc1cc(Cc2nc3ccc(C(=O)O)cc3n2[C@@H]2COCC2(C)C)c(F)cc1-c1ccnc(OCc2ccc(Cl)cc2)n1` [Example 219, (S)-2-(4-(2-((4-chlorobenzyl)oxy)pyrimidin-4-yl)-2-fluoro-5-methylbenzyl)-1-(4,4-dimethyltetrahydrofuran-3-yl)-1H-benzo[d]imidazole-6-carboxylic acid] was 189 pM.
